Test results: patent US20220204501A1, “ENTEROVIRUS INHIBITOR” (ACADEMY OF MILITARY MEDICAL SCIENCES, priority 2019, published 2022)

Tests used:
mTOR kinase = mTOR kinase (Homo sapiens, UniProt P42345); test: Inhibitory activity on mTOR kinase (TR-FRET, GFP-4E-BP1 substrate); assay type: biochemical; settings: fit parameter of concentration-mTOR kinase inhibition curve
CA10 = test: organism not typed; assay type: cell-based; settings: RD, 96 h
EV71 virus [1] = test: microbe, parasite or virus in culture; settings: Enterovirus A, EV71, RD, 96 h
EV-D68 [2] = tested on: EV-D68
CB3 virus [3] = tested on: CB3 virus
CA6 = test: organism not typed; assay type: cell-based; settings: RD, 96 h
CA16 = test: organism not typed; assay type: cell-based; settings: RD, 96 h
EV71 virus [4] = tested on: EV71 virus
CB3 virus [5] = test: organism not typed; settings: Vero, 120 h
EV-D68 [6] = test: microbe, parasite or virus in culture; settings: Enterovirus D, EVD68, RD, 96 h
mTORC2 = mTORC2 (Homo sapiens, UniProt P42345); settings: RD cells, 20 μM, 2 hours, insulin medium, Western blot
[7] = tested on: Poliovirus I/II/III (mixed vaccine strains of three subtypes)
[8] = tested on: Poliovirus I/II/III (mixed vaccine strains of three subtypes); test: microbe, parasite or virus in culture; settings: Enterovirus C, RD, 96 h
mTORC1 = mTORC1 (Homo sapiens, UniProt P42345); settings: RD cells, 20 μM, 2 hours, insulin medium, Western blot

Nc1ccc(-c2ccc3ncc4ccc(=O)n(-c5cccc(C(F)(F)F)c5)c4c3c2)cn1 [compound of Formula I, 9-(6-amino-pyridin-3-yl)-1-(3-trifluoromethyl-phenyl)-1H-benzo[h][1,6]naphthyridin-one]
Bottom (mTOR kinase): 3.74 | HillSlope (mTOR kinase): 1.14 | Top (mTOR kinase): 103.60 | IC50 (CA10): > 10000 nM | IC50 (EV71 virus [1]): 10 nM | inhibitory effect on enterovirus (in words) (EV-D68 [2]): significant inhibitory effect | inhibitory effect on enterovirus (in words) (CB3 virus [3]): significant inhibitory effect | IC50 (CA6): > 10000 nM | IC50 (CA16): > 10000 nM | inhibitory effect on enterovirus (in words) (EV71 virus [4]): significant inhibitory effect | IC50 (CB3 virus [5]): 5 nM | IC50 (EV-D68 [6]): 5 nM | phosphorylation level of Akt (Ser473) (mTORC2): significantly down-regulate | inhibitory effect on enterovirus (in words) [7]: significant inhibitory effect | IC50 [8]: 52 nM | phosphorylation expression levels of p70 (Thr389 of p70S6K1) (mTORC1): significantly reduced
